Experimental data from ChEMBL document CHEMBL2057083, “Development of new carbon-11 labelled radiotracers for imaging GABAA- and GABAB-benzodiazepine receptors” (Bioorg Med Chem, 2012).

Tests used:
Format in all cases: ADME, organism-based
Rattus norvegicus [1] = assay: Biodistribution in Sprague-Dawley rat cortex (front) at 37 MBq, iv measured 15 mins post injection; conditions: in vivo, 0.25 h
Hippocampus [2] = assay: Biodistribution in Sprague-Dawley rat hippocampus at 37 MBq, iv measured 60 mins post injection; conditions: in vivo, 1 h
Brain [3] = assay: Biodistribution in Sprague-Dawley rat rest of brain at 37 MBq, iv measured 15 mins post injection; conditions: in vivo, 0.25 h
Brain [4] = assay: Biodistribution in Sprague-Dawley rat rest of brain at 37 MBq, iv measured 5 mins post injection; conditions: in vivo
Rattus norvegicus [5] = assay: Biodistribution in Sprague-Dawley rat cortex (front) pretreated with unlabeled compound at 5 mg/kg, ip administered 30 mins before labeled compound treatment at 37 MBq, iv measured 15 mins post infection (reference value: 0.42 +/- 0.04%ID/g); parameters: dose 5 mg/kg; conditions: in vivo, 0.25 h
Striatum [6] = assay: Biodistribution in Sprague-Dawley rat striatum at 37 MBq, iv measured 5 mins post injection; conditions: in vivo
Hippocampus [7] = assay: Biodistribution in Sprague-Dawley rat hippocampus at 37 MBq, iv measured 15 mins post injection; conditions: in vivo, 0.25 h
Blood [8] = assay: Biodistribution in Sprague-Dawley rat blood pretreated with unlabeled compound at 0.1 mg/kg, ip administered 30 mins before labeled compound treatment at 37 MBq, iv measured 15 mins post injection (0.11 +/- 0.01 %ID/g); parameters: dose 0.1 mg/kg; conditions: in vivo, 0.25 h
[9] = Biodistribution in Sprague-Dawley rat hippocampus pretreated with unlabeled compound at 10 mg/kg, ip administered 30 mins before labeled compound treatment at 37 MBq, iv measured 15 mins post injection (reference value: 0.22 +/- 0.22 %ID/g); parameters: dose 10 mg/kg; conditions: read-out: Drug uptake
[10] = Metabolic stability of the compound in Sprague-Dawley rat brain assessed as compound remaining at 37 MBq, iv measured after 15 mins; conditions: read-out: Stability
[11] = Biodistribution in Sprague-Dawley rat hippocampus pretreated with unlabeled compound at 5 mg/kg, ip administered 30 mins before labeled compound treatment at 37 MBq, iv measured 15 mins post injection (reference value: 0.22 +/- 0.22 %ID/g); parameters: dose 5 mg/kg; conditions: read-out: Drug uptake
Brain [12] = assay: Biodistribution in Sprague-Dawley rat rest of brain pretreated with unlabeled compound at 5 mg/kg, ip administered 30 mins before labeled compound treatment at 37 MBq, iv measured 15 mins post injection (0.20 +/- 0.01 %ID/g); parameters: dose 5 mg/kg, route intravenous; conditions: in vivo, 0.25 h
Blood [13] = assay: Biodistribution in Sprague-Dawley rat blood at 37 MBq, iv measured 30 mins post injection; conditions: in vivo, 0.5 h
Brain [14] = assay: Biodistribution in Sprague-Dawley rat rest of brain at 37 MBq, iv measured 60 mins post injection; conditions: in vivo, 1 h
Cerebellum [15] = assay: Biodistribution in Sprague-Dawley rat cerebellum at 37 MBq, iv measured 30 mins post injection; conditions: in vivo, 0.5 h
Rattus norvegicus [16] = assay: Biodistribution in Sprague-Dawley rat cortex (rest) at 37 MBq, iv measured 5 mins post injection; conditions: in vivo
[17] = Biodistribution in Sprague-Dawley rat cortex (rest) pretreated with unlabeled compound at 0.1 mg/kg, ip administered 30 mins before labeled compound treatment at 37 MBq, iv measured 15 mins post injection (0.36 +/- 0.02 %ID/g); parameters: dose 0.1 mg/kg; conditions: read-out: Drug uptake
Blood [18] = assay: Biodistribution in Sprague-Dawley rat blood at 37 MBq, iv measured 5 mins post injection; conditions: in vivo
Cerebellum [19] = assay: Biodistribution in Sprague-Dawley rat cerebellum at 37 MBq, iv measured 60 mins post injection; conditions: in vivo, 1 h
Rattus norvegicus [20] = assay: Biodistribution in Sprague-Dawley rat cortex (front) pretreated with unlabeled compound at 0.1 mg/kg, ip administered 30 mins before labeled compound treatment at 37 MBq, iv measured 15 mins post infection (reference value: 0.42 +/- 0.04%ID/g); parameters: dose 0.1 mg/kg; conditions: in vivo, 0.25 h
Cerebellum [21] = assay: Biodistribution in Sprague-Dawley rat cerebellum at 37 MBq, iv measured 5 mins post injection; conditions: in vivo
[22] = Biodistribution in Sprague-Dawley rat cerebellum pretreated with unlabeled compound at 5 mg/kg, ip administered 30 mins before labeled compound treatment at 37 MBq, iv measured 15 mins post injection (reference value: 0.26 %ID/g); parameters: dose 5 mg/kg; conditions: read-out: Drug uptake
Blood [23] = assay: Biodistribution in Sprague-Dawley rat blood pretreated with unlabeled compound at 5 mg/kg, ip administered 30 mins before labeled compound treatment at 37 MBq, iv measured 15 mins post injection (0.11 +/- 0.01 %ID/g); parameters: dose 5 mg/kg; conditions: in vivo, 0.25 h
Rattus norvegicus [24] = assay: Biodistribution in Sprague-Dawley rat cortex (rest) at 37 MBq, iv measured 60 mins post injection; conditions: in vivo, 1 h
Rattus norvegicus [25] = assay: Biodistribution in Sprague-Dawley rat cortex (front) at 37 MBq, iv measured 60 mins post injection; conditions: in vivo, 1 h
Striatum [26] = assay: Biodistribution in Sprague-Dawley rat striatum at 37 MBq, iv measured 60 mins post injection; conditions: in vivo, 1 h
[27] = Biodistribution in Sprague-Dawley rat cerebellum pretreated with unlabeled compound at 10 mg/kg, ip administered 30 mins before labeled compound treatment at 37 MBq, iv measured 15 mins post injection (reference value: 0.26 %ID/g); parameters: dose 10 mg/kg; conditions: read-out: Drug uptake
[28] = Biodistribution in Sprague-Dawley rat cerebellum pretreated with unlabeled compound at 0.1 mg/kg, ip administered 30 mins before labeled compound treatment at 37 MBq, iv measured 15 mins post injection (reference value: 0.26 %ID/g); parameters: dose 0.1 mg/kg; conditions: read-out: Drug uptake
Plasma = assay: Drug metabolism in Sprague-Dawley rat plasma at 37 MBq, iv measured after 5 mins; conditions: in vivo
Brain [29] = assay: Biodistribution in Sprague-Dawley rat rest of brain at 37 MBq, iv measured 30 mins post injection; conditions: in vivo, 0.5 h
Blood [30] = assay: Biodistribution in Sprague-Dawley rat blood at 37 MBq, iv measured 60 mins post injection; conditions: in vivo, 1 h
[31] = Biodistribution in Sprague-Dawley rat blood pretreated with unlabeled compound at 10 mg/kg, ip administered 30 mins before labeled compound treatment at 37 MBq, iv measured 15 mins post injection (0.11 +/- 0.01 %ID/g); parameters: dose 10 mg/kg; conditions: read-out: Drug uptake
Striatum [32] = assay: Biodistribution in Sprague-Dawley rat striatum at 37 MBq, iv measured 15 mins post injection; conditions: in vivo, 0.25 h
Rattus norvegicus [33] = assay: Biodistribution in Sprague-Dawley rat cortex (front) at 37 MBq, iv measured 5 mins post injection; conditions: in vivo
[34] = Biodistribution in Sprague-Dawley rat rest of brain pretreated with unlabeled compound at 0.1 mg/kg, ip administered 30 mins before labeled compound treatment at 37 MBq, iv measured 15 mins post injection (0.20 +/- 0.01 %ID/g); parameters: dose 0.1 mg/kg; conditions: read-out: Drug uptake
Blood [35] = assay: Biodistribution in Sprague-Dawley rat blood at 37 MBq, iv measured 15 mins post injection; conditions: in vivo, 0.25 h
Hippocampus [36] = assay: Biodistribution in Sprague-Dawley rat hippocampus at 37 MBq, iv measured 5 mins post injection; conditions: in vivo
[37] = Biodistribution in Sprague-Dawley rat hippocampus pretreated with unlabeled compound at 0.1 mg/kg, ip administered 30 mins before labeled compound treatment at 37 MBq, iv measured 15 mins post injection (reference value: 0.22 +/- 0.22 %ID/g); parameters: dose 0.1 mg/kg; conditions: read-out: Drug uptake
Rattus norvegicus [38] = assay: Biodistribution in Sprague-Dawley rat cortex (front) at 37 MBq, iv measured 30 mins post injection; conditions: in vivo, 0.5 h
[39] = Metabolic stability of the compound in Sprague-Dawley rat plasma assessed as compound remaining at 37 MBq, iv measured after 15 mins; conditions: read-out: Stability
Striatum [40] = assay: Biodistribution in Sprague-Dawley rat striatum pretreated with unlabeled compound at 0.1 mg/kg, ip administered 30 mins before labeled compound treatment at 37 MBq, iv measured 15 mins post injection (reference value: 0.13 +/- 0.22 %ID/g); parameters: dose 0.1 mg/kg, route intravenous; conditions: in vivo, 0.25 h
Rattus norvegicus [41] = assay: Biodistribution in Sprague-Dawley rat cortex (rest) pretreated with unlabeled compound at 5 mg/kg, ip administered 30 mins before labeled compound treatment at 37 MBq, iv measured 15 mins post injection (0.36 +/- 0.02 %ID/g); parameters: dose 5 mg/kg; conditions: in vivo, 0.25 h
Brain [42] = assay: Biodistribution in Sprague-Dawley rat rest of brain pretreated with unlabeled compound at 10 mg/kg, ip administered 30 mins before labeled compound treatment at 37 MBq, iv measured 15 mins post injection (0.20 +/- 0.01 %ID/g); parameters: dose 10 mg/kg; conditions: in vivo, 0.25 h
Cerebellum [43] = assay: Biodistribution in Sprague-Dawley rat cerebellum at 37 MBq, iv measured 15 mins post injection; conditions: in vivo, 0.25 h
[44] = Biodistribution in Sprague-Dawley rat striatum pretreated with unlabeled compound at 5 mg/kg, ip administered 30 mins before labeled compound treatment at 37 MBq, iv measured 15 mins post injection (reference value: 0.13 +/- 0.22 %ID/g); parameters: dose 5 mg/kg, route intravenous; conditions: read-out: Drug uptake
Striatum [45] = assay: Biodistribution in Sprague-Dawley rat striatum pretreated with unlabeled compound at 10 mg/kg, ip administered 30 mins before labeled compound treatment at 37 MBq, iv measured 15 mins post injection (reference value: 0.13 +/- 0.22 %ID/g); parameters: dose 10 mg/kg, route intravenous; conditions: in vivo, 0.25 h
Rattus norvegicus [46] = assay: Biodistribution in Sprague-Dawley rat cortex (rest) pretreated with unlabeled compound at 10 mg/kg, ip administered 30 mins before labeled compound treatment at 37 MBq, iv measured 15 mins post injection (0.36 +/- 0.02 %ID/g); parameters: dose 10 mg/kg; conditions: in vivo, 0.25 h
Rattus norvegicus [47] = assay: Biodistribution in Sprague-Dawley rat cortex (front) pretreated with unlabeled compound at 10 mg/kg, ip administered 30 mins before labeled compound treatment at 37 MBq, iv measured 15 mins post infection (reference value: 0.42 +/- 0.04%ID/g); parameters: dose 10 mg/kg; conditions: in vivo, 0.25 h
Hippocampus [48] = assay: Biodistribution in Sprague-Dawley rat hippocampus at 37 MBq, iv measured 30 mins post injection; conditions: in vivo, 0.5 h
Striatum [49] = assay: Biodistribution in Sprague-Dawley rat striatum at 37 MBq, iv measured 30 mins post injection; conditions: in vivo, 0.5 h
Rattus norvegicus [50] = assay: Biodistribution in Sprague-Dawley rat cortex (rest) at 37 MBq, iv measured 30 mins post injection; conditions: in vivo, 0.5 h
Rattus norvegicus [51] = assay: Biodistribution in Sprague-Dawley rat cortex (rest) at 37 MBq, iv measured 15 mins post injection; conditions: in vivo, 0.25 h

- Drug uptake (Rattus norvegicus [1]): 0.53 % ID/g
- Drug uptake (Hippocampus [2]): 0.09 % ID/g
- Drug uptake (Brain [3]): 0.27 % ID/g
- Drug uptake (Brain [4]): 0.25 % ID/g
- Drug uptake (Rattus norvegicus [5]): 0.16 % ID/g
- Drug uptake (Striatum [6]): 0.26 % ID/g
- Drug uptake (Hippocampus [7]): 0.29 % ID/g
- Drug uptake (Blood [8]): 0.11 % ID/g
- tissue uptake at 0.25 h [9]: 0.08 %ID/g
- remaining at 0.25 h [10]: > 99%
- tissue uptake at 0.25 h [11]: 0.11 %ID/g
- Drug uptake (Brain [12]): 0.09 % ID/g
- Drug uptake (Blood [13]): 0.11 % ID/g
- Drug uptake (Brain [14]): 0.11 % ID/g
- Drug uptake (Cerebellum [15]): 0.26 % ID/g
- Drug uptake (Rattus norvegicus [16]): 0.45 % ID/g
- tissue uptake at 0.25 h [17]: 0.27 %ID/g
- Drug uptake (Blood [18]): 0.14 % ID/g
- Drug uptake (Cerebellum [19]): 0.13 % ID/g
- Drug uptake (Rattus norvegicus [20]): 0.36 % ID/g
- Drug uptake (Cerebellum [21]): 0.36 % ID/g
- tissue uptake at 0.25 h [22]: 0.12 %ID/g
- Drug uptake (Blood [23]): 0.12 % ID/g
- Drug uptake (Rattus norvegicus [24]): 0.16 % ID/g
- Drug uptake (Rattus norvegicus [25]): 0.21 % ID/g
- Drug uptake (Striatum [26]): 0.06 % ID/g
- tissue uptake at 0.25 h [27]: 0.09 %ID/g
- tissue uptake at 0.25 h [28]: 0.22 %ID/g
- Drug metabolism (Plasma): Active
- Drug uptake (Brain [29]): 0.22 % ID/g
- Drug uptake (Blood [30]): 0.08 % ID/g
- tissue uptake at 0.25 h [31]: 0.12 %ID/g
- Drug uptake (Striatum [32]): 0.21 % ID/g
- Drug uptake (Rattus norvegicus [33]): 0.47 % ID/g
- tissue uptake at 0.25 h [34]: 0.16 %ID/g
- Drug uptake (Blood [35]): 0.15 % ID/g
- Drug uptake (Hippocampus [36]): 0.2 % ID/g
- tissue uptake at 0.25 h [37]: 0.17 %ID/g
- Drug uptake (Rattus norvegicus [38]): 0.44 % ID/g
- remaining at 0.25 h [39]: 71%
- Drug uptake (Striatum [40]): 0.14 % ID/g
- Drug uptake (Rattus norvegicus [41]): 0.14 % ID/g
- Drug uptake (Brain [42]): 0.09 % ID/g
- Drug uptake (Cerebellum [43]): 0.34 % ID/g
- tissue uptake at 0.25 h [44]: 0.1 %ID/g
- Drug uptake (Striatum [45]): 0.08 % ID/g
- Drug uptake (Rattus norvegicus [46]): 0.11 % ID/g
- Drug uptake (Rattus norvegicus [47]): 0.13 % ID/g
- Drug uptake (Hippocampus [48]): 0.24 % ID/g
- Drug uptake (Striatum [49]): 0.15 % ID/g
- Drug uptake (Rattus norvegicus [50]): 0.37 % ID/g
- Drug uptake (Rattus norvegicus [51]): 0.46 % ID/g
SMILES: [11CH3]Oc1ncccc1-c1cccc2c(N)c3c(nc12)CN(C1CCC1)C3=O
